Source: ChEMBL document CHEMBL1155946, “Design, synthesis and biological evaluation of glutathione peptidomimetics as components of anti-Parkinson prodrugs” (J Med Chem, 2008)
Active and inactive are the calls of the source. No cut-off for these calls is given here.

Columns and labels:
[1] = Metabolic stability in rat brain at 37 degC; assay type: ADME, tissue-based
[2] = Metabolic stability in rat plasma at 37 degC; assay type: ADME, cell-free
[3] = system: MDCK; test: Inhibition of [3H]glutathione uptake at glutathione transporter in MDCK cells at 10 nM to 1000 nM by HPLC; assay type: cell-based; conditions: Canis lupus familiaris
[4] = Stability in buffer solution at pH 7.2

half-life [1] [h] | half-life [2] [h] | half-life [4] [h] | Structure (SMILES) | Activity [3]
6 | 3 | > 12 | N[C@@H](CNC(=O)N[C@@H](CSSCC(=O)C(=O)NCCc1ccc(O)c(O)c1)C(=O)NCC(=O)O)C(=O)O | Active
 |  |  | N[C@@H](CNC(=O)N[C@@H](CSSCC(=O)C(=O)NC12CC3CC(CC(C3)C1)C2)C(=O)NCC(=O)O)C(=O)O | Active
